These results are taken from PubChem BioAssay (NCI).

Among the test systems are LOX IMVI melanoma; OVCAR-8 ovarian; M19-MEL melanoma; OVCAR-5 ovarian; HCT-116 colon; SF-295 CNS; HCT-15 colon; DMS 273 small cell lung; COLO 205 colon; PC-3 prostate; T-47D breast.
What all share (assay): NCI-60 cell line screen, 48 h

SMILES strings stand for the structures. Values joined by “and” are separate entries in the source; they are usually repeats but may differ in a detail not shown here. Identical values can stand only once.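 Cultured in 96-well plates, cells were exposed to test compound for 48 hours across five concentrations. The concentration for 50% growth inhibition is given as GI50. TGI is the concentration that stops growth completely.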 Some results are limits rather than exact numbers.

Consider `Cc1c2cc[n+](C)cc2c(C)c2c1[nH]c1ccc(OCC(F)(F)F)cc12`, for which the GI50 in the assay on LOX IMVI melanoma is 10.8 µM and 22.8 µM; with OVCAR-5 ovarian it was 12 µM and > 100 µM; in the assay on HCT-15 colon it was 44.6 µM and > 100 µM. Besides, the TGI with LOX IMVI melanoma was greater than 100 µM; in the assay on OVCAR-8 ovarian, greater than 100 µM; in the assay on M19-MEL melanoma, greater than 24.5 µM; in the assay on OVCAR-5 ovarian, greater than 100 µM; with HCT-116 colon it was greater than 100 µM; with SF-295 CNS, 2.22 µM. For the same compound, the TGI in the assay on HCT-15 colon was greater than 100 µM; in the assay with DMS 273 small cell lung it was > 31.7 µM and 30.9 µM.

As to `CCCCn1c(-c2ccccc2)cs/c1=N\NC(=O)Cn1c(C)nc2ccccc21`, the TGI with LOX IMVI melanoma, with OVCAR-8 ovarian, with M19-MEL melanoma, in the assay with OVCAR-5 ovarian, in the assay on HCT-116 colon and in the assay on SF-295 CNS was greater than 100 µM throughout. Besides, the TGI with COLO 205 colon is 38.2 µM; with HCT-15 colon it was greater than 100 µM; in the assay on DMS 273 small cell lung, greater than 100 µM.

On to `C=C1C(=O)OC2C[C@@]3(C)CCCC(=C)C3CC12` (stereo partly specified), for which the TGI in the assay on LOX IMVI melanoma came out at 2.59 µM; with OVCAR-8 ovarian, 24.6 µM; in the assay on OVCAR-5 ovarian, 33.6 µM; in the assay on HCT-116 colon, 15.2 µM; in the assay with SF-295 CNS, 23.6 µM; with COLO 205 colon, 6.85 µM. For the same compound, the results for the TGI with HCT-15 colon and in the assay on DMS 273 small cell lung were 24.7 µM and 10.7 µM, respectively.

Regarding `O=c1[nH]c(=S)[nH]c2c1CCCN2`, the TGI in the assay on LOX IMVI melanoma, in the assay on OVCAR-8 ovarian, in the assay on M19-MEL melanoma, in the assay on OVCAR-5 ovarian, with HCT-116 colon and with SF-295 CNS was greater than 100 µM throughout. Moreover, the TGI with COLO 205 colon and in the assay with HCT-15 colon was greater than 100 µM in each case.

`C/C(=N/NC(N)=S)C(CN1CCOCC1)C(C1=C(O)c2ccccc2OC1)c1ccccc1` (stereo unspecified): the TGI in the assay on LOX IMVI melanoma, with OVCAR-8 ovarian, with M19-MEL melanoma, with OVCAR-5 ovarian, in the assay with HCT-116 colon and with SF-295 CNS was greater than 100 µM throughout. In the assay on COLO 205 colon, the TGI is greater than 100 µM.

As for `CCN(CC)CC[n+]1ccc2c(C)c3[nH]c4ccccc4c3c(C)c2c1`, the TGI with LOX IMVI melanoma was 2.13 µM and 3.73 µM and 16.3 µM; in the assay with OVCAR-8 ovarian it was 4.97 µM and 5.17 µM and 2.25 µM; in the assay with M19-MEL melanoma it was 0.762 µM and 2 µM; in the assay with PC-3 prostate, 3.18 µM; in the assay on OVCAR-5 ovarian it was 5.15 µM and 15 µM and 7.28 µM; with SF-295 CNS it was 6.9 µM and 15.1 µM and 6.83 µM. The TGI is 1190 nM in the assay on T-47D breast; 0.525 µM and 0.878 µM and 1.55 µM in the assay on COLO 205 colon; 80.5 µM and 110 µM in the assay with HCT-15 colon; 1.53 µM and 1.74 µM in the assay with DMS 273 small cell lung. The GI50 with OVCAR-8 ovarian was 392 nM and 590 nM and 195 nM; in the assay with OVCAR-5 ovarian it was 2.74 µM; in the assay on SF-295 CNS, 1280 nM; in the assay on COLO 205 colon it was 131 nM and 297 nM and 412 nM.

As for `C/C(N=NS(=O)(=O)c1c(C)cc(C)cc1C)=C1\C=CC=CN1O`, the TGI in the assay on OVCAR-8 ovarian, in the assay on M19-MEL melanoma, in the assay with OVCAR-5 ovarian, with HCT-116 colon, in the assay with SF-295 CNS and with HCT-15 colon was greater than 100 µM each time. In the assay with DMS 273 small cell lung, this compound yielded a TGI greater than 100 µM.

As for `COC(=O)c1c(CC(=O)OC(C)C)cc2n(c1=O)Cc1c-2nc2ccccc2c1OC`, the TGI in the assay with LOX IMVI melanoma, with OVCAR-8 ovarian, with M19-MEL melanoma, in the assay with OVCAR-5 ovarian, with HCT-116 colon and with SF-295 CNS was greater than 100 µM in each case. Also, the TGI in the assay on COLO 205 colon, in the assay with HCT-15 colon and in the assay on DMS 273 small cell lung was greater than 100 µM in each case.

`O=Cn1c2ccccc2c2ccccc21`: the TGI in the assay with LOX IMVI melanoma, in the assay on OVCAR-8 ovarian, in the assay on M19-MEL melanoma, with OVCAR-5 ovarian, in the assay on HCT-116 colon and in the assay with SF-295 CNS was greater than 100 µM each time. For the same compound, the TGI with COLO 205 colon, with HCT-15 colon and in the assay with DMS 273 small cell lung was greater than 100 µM throughout.

Turning to `CN1COCN=C1NC#N`, the TGI in the assay with LOX IMVI melanoma, in the assay with M19-MEL melanoma, with OVCAR-5 ovarian, with HCT-116 colon, with SF-295 CNS and in the assay with COLO 205 colon was greater than 100 µM throughout. Also, in the assay on HCT-15 colon, the TGI is greater than 100 µM.

In the case of `c1ccc(C2N=C(c3ccccn3)C(c3ccccn3)=NC2c2ccccc2)cc1` (stereo unspecified), the TGI in the assay on LOX IMVI melanoma, with OVCAR-8 ovarian, with M19-MEL melanoma, in the assay on OVCAR-5 ovarian, with HCT-116 colon and in the assay on SF-295 CNS was greater than 100 µM throughout. Besides, the TGI in the assay with COLO 205 colon, in the assay on HCT-15 colon and in the assay on DMS 273 small cell lung was greater than 100 µM in each case.

`NCCCNCCSP(=O)(O)O`: the TGI in the assay on LOX IMVI melanoma is greater than 750 µM; with OVCAR-8 ovarian, greater than 511 µM; in the assay on M19-MEL melanoma, greater than 750 µM; in the assay on OVCAR-5 ovarian it was greater than 750 µM; in the assay with HCT-116 colon, greater than 750 µM; in the assay with SF-295 CNS, greater than 750 µM. For the same compound, the TGI is greater than 657 µM in the assay with COLO 205 colon, greater than 645 µM in the assay on HCT-15 colon and greater than 750 µM in the assay with DMS 273 small cell lung.

`Cc1ccc(N2Cc3c(ccc4ccccc34)OP2(=S)N2CCCC2)cc1` (stereo unspecified): the TGI with LOX IMVI melanoma, in the assay with OVCAR-8 ovarian, with M19-MEL melanoma, in the assay on OVCAR-5 ovarian, in the assay with HCT-116 colon and in the assay on SF-295 CNS was greater than 100 µM each time. Moreover, the TGI in the assay on COLO 205 colon, in the assay with HCT-15 colon and in the assay on DMS 273 small cell lung was greater than 100 µM each time.
